Reference: PMC7265341, “Quantifying CDK inhibitor selectivity in live cells” (Nature Communications, 2020)
Like-named read-outs stand apart in the source and are kept apart here.

How the values were obtained:
CDK11A/Cyclin L2 = target: T1, CDK11A/Cyclin L2 (Homo sapiens, UniProt Q9UQ88); test: NanoBRET live-cell target engagement, CDK11A-NanoLuc/Cyclin L2 in HEK-293; type: binding; details: read-out: CDK11a/L2 Inhibition at 10µM (%), 10µM
T1 sequence (Q9UQ88 1-783): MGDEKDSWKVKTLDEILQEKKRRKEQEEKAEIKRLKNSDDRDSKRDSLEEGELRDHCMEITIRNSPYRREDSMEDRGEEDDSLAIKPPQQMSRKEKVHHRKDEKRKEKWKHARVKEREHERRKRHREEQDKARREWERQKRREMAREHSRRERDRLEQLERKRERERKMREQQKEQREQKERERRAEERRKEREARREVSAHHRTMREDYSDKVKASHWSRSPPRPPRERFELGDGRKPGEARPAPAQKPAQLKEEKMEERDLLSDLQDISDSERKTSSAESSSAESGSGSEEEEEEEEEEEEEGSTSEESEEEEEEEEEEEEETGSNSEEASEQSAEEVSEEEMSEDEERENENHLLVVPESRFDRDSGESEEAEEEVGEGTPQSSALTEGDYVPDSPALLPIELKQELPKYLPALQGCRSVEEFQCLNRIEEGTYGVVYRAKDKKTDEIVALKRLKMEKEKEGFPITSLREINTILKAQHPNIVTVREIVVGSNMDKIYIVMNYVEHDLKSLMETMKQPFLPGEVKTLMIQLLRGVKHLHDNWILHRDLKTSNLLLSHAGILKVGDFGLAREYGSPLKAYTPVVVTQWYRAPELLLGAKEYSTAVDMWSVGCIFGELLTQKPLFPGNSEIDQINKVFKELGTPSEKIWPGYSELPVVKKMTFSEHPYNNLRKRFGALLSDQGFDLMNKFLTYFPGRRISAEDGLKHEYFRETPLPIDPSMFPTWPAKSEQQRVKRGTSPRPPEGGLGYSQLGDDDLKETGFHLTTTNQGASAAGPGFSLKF

CDK7 = CDK7 (Homo sapiens, UniProt P50613); test: NanoBRET live-cell target engagement, NanoLuc-CDK7 in HEK-293; type: binding; details: read-out: CDK7 Inhibition at 10µM (%), 10µM
CDK9/Cyclin K = CDK9/Cyclin K (Homo sapiens, UniProt P50750); test: NanoBRET live-cell target engagement, NanoLuc-CDK9/Cyclin K in HEK-293; type: binding
CDK13/Cyclin K = CDK13/Cyclin K (Homo sapiens, UniProt Q14004); test: NanoBRET live-cell target engagement, CDK13-NanoLuc/Cyclin K in HEK-293; type: binding; details: read-out: CDK13/K Inhibition at 10µM (%), 10µM
CDK10/Cyclin L2 = CDK10/Cyclin L2 (Homo sapiens, UniProt Q15131); test: NanoBRET live-cell target engagement, CDK10-NanoLuc/Cyclin L2 in HEK-293; details: read-out: CDK10/L2 Inhibition at 10µM (%), 10µM
CDK8/Cyclin C = CDK8/Cyclin C (Homo sapiens, UniProt P49336); test: NanoBRET live-cell target engagement, NanoLuc-CDK8/Cyclin C in HEK-293; type: binding; details: read-out: CDK8/C Inhibition at 10µM (%), 10µM
CDK19/Cyclin C = CDK19/Cyclin C (Homo sapiens, UniProt Q9BWU1); test: NanoBRET live-cell target engagement, NanoLuc-CDK19/Cyclin C in HEK-293; details: read-out: CDK19/C Inhibition at 10µM (%), 10µM
CDK11B/Cyclin L2 = CDK11B/Cyclin L2 (Homo sapiens, UniProt P21127); test: NanoBRET live-cell target engagement, CDK11B-NanoLuc/Cyclin L2 in HEK-293; type: binding; details: read-out: CDK11b/L2 Inhibition at 10µM (%), 10µM
CDK4/Cyclin D1 = CDK4/Cyclin D1 (Homo sapiens, UniProt P11802); test: NanoBRET live-cell target engagement, NanoLuc-CDK4/Cyclin D1 in HEK-293; type: binding; details: 10µM, read-out: CDK4/D1 Inhibition at 10µM (%)
CDK12/Cyclin K = CDK12/Cyclin K (Homo sapiens, UniProt Q9NYV4); test: NanoBRET live-cell target engagement, CDK12-NanoLuc/Cyclin K in HEK-293; type: binding; details: read-out: CDK12/K Inhibition at 10µM (%), 10µM
CDK6/Cyclin D1 = CDK6/Cyclin D1 (Homo sapiens, UniProt Q00534); test: NanoBRET live-cell target engagement, NanoLuc-CDK6/Cyclin D1 in HEK-293; type: binding; details: read-out: CDK6/D1 Inhibition at 10µM (%), 10µM
CDK20/Cyclin H = CDK20/Cyclin H (Homo sapiens, UniProt Q8IZL9); test: NanoBRET live-cell target engagement, NanoLuc-CDK20/Cyclin H in HEK-293; type: binding; details: read-out: CDK20/H Inhibition at 10µM (%), 10µM
Sequence of CDK20/Cyclin H (Q8IZL9 whole entry): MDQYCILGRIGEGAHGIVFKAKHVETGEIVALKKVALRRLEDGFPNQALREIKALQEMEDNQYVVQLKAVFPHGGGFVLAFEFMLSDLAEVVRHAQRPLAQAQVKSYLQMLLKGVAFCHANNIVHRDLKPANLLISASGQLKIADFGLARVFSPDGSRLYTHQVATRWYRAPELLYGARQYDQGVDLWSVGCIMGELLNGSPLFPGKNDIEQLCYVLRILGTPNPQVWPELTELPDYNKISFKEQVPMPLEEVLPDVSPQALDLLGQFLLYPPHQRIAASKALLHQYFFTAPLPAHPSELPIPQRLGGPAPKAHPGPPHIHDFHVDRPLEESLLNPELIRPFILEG
Sequence of CDK20/Cyclin H (P51946 whole entry partner): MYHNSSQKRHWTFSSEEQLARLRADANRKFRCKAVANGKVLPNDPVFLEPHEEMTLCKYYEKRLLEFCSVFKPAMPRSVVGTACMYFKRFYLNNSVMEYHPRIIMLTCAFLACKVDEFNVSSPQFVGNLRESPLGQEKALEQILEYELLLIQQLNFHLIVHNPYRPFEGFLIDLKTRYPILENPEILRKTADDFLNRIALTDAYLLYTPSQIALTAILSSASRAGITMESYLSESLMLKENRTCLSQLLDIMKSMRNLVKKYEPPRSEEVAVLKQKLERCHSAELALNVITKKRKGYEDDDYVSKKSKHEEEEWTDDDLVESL

Sequence of CDK10/Cyclin L2 (Q15131 whole entry): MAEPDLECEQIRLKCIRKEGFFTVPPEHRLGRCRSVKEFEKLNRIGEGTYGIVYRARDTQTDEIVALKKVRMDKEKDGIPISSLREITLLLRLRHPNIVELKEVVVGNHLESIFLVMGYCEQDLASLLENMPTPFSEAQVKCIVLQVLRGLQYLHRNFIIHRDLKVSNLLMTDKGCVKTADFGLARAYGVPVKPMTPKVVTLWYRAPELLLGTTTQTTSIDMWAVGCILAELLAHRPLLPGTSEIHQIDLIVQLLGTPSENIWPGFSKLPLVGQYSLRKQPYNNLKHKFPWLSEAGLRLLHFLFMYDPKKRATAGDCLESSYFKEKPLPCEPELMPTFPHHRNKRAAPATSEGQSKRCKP
Sequence of CDK4/Cyclin D1 (P11802 whole entry): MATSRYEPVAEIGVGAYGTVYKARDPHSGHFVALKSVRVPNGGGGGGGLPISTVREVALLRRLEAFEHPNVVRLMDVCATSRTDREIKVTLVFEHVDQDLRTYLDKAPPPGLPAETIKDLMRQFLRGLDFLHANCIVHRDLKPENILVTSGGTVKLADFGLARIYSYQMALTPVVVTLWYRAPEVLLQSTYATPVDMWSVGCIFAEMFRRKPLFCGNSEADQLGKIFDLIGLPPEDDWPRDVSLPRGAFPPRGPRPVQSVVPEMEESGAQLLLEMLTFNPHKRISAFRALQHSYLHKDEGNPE
Sequence of CDK4/Cyclin D1 (P24385 whole entry partner): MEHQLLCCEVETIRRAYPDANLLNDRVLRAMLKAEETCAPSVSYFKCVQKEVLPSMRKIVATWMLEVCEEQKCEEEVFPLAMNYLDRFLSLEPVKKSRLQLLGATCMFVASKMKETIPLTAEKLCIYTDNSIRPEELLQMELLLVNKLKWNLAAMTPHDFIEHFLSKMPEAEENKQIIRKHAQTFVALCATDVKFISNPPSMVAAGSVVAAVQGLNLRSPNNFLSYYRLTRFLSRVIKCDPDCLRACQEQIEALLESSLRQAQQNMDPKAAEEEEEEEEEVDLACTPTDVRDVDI
Sequence of CDK19/Cyclin C (Q9BWU1 whole entry): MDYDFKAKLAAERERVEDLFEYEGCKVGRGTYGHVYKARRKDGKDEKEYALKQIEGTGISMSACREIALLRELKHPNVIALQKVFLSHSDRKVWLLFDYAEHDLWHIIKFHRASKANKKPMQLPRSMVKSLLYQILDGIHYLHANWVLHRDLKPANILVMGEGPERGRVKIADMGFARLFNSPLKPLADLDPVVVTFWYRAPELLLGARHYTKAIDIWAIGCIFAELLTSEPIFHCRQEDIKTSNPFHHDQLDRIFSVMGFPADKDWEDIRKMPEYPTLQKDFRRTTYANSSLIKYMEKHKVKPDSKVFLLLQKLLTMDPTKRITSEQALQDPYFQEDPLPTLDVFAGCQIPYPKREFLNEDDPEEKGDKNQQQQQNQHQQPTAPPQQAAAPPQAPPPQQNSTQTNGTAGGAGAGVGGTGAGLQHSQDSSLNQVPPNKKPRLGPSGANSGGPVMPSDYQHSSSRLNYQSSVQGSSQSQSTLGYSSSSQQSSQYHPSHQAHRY
Sequence of CDK19/Cyclin C (P24863 whole entry partner): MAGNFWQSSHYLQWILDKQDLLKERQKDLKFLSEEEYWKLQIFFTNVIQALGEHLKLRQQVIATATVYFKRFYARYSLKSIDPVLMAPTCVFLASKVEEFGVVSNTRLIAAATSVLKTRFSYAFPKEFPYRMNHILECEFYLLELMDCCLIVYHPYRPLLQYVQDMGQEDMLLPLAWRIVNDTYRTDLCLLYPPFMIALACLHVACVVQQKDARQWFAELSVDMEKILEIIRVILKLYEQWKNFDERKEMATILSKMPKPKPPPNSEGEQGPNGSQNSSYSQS
Sequence of CDK8/Cyclin C (P49336 whole entry): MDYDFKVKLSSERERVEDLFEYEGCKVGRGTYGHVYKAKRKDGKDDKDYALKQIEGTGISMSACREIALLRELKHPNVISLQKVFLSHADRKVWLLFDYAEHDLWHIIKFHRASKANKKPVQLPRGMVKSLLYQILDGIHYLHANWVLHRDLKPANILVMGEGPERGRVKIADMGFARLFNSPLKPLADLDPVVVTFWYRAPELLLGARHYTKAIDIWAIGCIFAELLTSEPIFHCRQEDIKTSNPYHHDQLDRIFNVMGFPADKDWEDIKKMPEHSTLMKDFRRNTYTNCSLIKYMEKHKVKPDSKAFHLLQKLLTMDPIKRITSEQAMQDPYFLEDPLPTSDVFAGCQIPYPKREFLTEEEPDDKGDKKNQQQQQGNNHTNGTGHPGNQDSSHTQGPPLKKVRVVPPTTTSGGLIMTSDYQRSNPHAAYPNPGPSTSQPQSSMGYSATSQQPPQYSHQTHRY
Sequence of CDK8/Cyclin C (P24863 whole entry partner): as the sequence (P24863 whole entry partner) above
Sequence of CDK11B/Cyclin L2 (P21127 1-782 isoform P21127-2): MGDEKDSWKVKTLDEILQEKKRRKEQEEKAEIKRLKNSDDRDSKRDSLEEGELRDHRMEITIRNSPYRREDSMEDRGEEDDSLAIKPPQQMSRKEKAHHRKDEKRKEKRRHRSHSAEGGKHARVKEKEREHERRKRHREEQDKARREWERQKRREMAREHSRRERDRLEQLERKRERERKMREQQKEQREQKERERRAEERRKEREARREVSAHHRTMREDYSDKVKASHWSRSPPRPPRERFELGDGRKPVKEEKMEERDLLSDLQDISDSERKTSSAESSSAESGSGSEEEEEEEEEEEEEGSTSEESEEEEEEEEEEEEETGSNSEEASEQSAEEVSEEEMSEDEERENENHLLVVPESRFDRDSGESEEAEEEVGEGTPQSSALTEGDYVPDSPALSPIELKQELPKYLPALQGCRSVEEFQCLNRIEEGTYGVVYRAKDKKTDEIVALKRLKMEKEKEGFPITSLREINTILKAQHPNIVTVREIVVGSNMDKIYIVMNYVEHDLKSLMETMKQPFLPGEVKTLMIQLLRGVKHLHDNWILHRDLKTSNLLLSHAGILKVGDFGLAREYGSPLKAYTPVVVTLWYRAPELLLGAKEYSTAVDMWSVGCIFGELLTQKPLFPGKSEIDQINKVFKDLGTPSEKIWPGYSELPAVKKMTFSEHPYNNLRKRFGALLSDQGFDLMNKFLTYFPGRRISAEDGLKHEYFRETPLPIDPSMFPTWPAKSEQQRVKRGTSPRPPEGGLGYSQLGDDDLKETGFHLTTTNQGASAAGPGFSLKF
Sequence of CDK7 (P50613 whole entry): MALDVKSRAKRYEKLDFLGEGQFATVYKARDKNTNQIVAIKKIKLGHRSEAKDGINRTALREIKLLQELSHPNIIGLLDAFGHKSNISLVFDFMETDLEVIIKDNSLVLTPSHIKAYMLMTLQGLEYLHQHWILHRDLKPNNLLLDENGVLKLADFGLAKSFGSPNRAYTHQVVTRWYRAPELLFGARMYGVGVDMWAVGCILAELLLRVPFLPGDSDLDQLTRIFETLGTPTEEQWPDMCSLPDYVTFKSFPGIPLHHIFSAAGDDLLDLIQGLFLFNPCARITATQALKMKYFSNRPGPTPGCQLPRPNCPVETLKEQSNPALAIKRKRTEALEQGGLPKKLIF
Sequence of CDK6/Cyclin D1 (Q00534 whole entry): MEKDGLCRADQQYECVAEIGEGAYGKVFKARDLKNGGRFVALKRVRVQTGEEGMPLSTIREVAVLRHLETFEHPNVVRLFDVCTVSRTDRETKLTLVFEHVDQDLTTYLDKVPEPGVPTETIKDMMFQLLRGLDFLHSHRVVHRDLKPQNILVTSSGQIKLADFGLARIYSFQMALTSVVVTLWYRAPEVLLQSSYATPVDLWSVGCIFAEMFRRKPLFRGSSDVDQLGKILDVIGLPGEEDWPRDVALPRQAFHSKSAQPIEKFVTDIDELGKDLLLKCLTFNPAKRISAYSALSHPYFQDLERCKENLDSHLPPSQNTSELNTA
Sequence of CDK6/Cyclin D1 (P24385 whole entry partner): as the sequence (P24385 whole entry partner) above

`CC[C@H](CO)Nc1nc(NCc2ccccc2)c2ncn(C(C)C)c2n1` [Roscovitine] gave an inhibition at 10 µM (CDK11A/Cyclin L2; average of experiments) of 2.5%, an inhibition at 10 µM (CDK11A/Cyclin L2; independent experiment 2) of -3.8% and an inhibition at 10 µM (CDK7; independent experiment 1) of 52.6%. The inhibition at 10 µM (CDK7; independent experiment 2) was 57.2%, the “CDK9/K Inhibition at 10µM (%)” value (CDK9/Cyclin K; 10 µM) was 52.2% and the inhibition at 10 µM (CDK9/Cyclin K; read-out: CDK9/K Inhibition at 10µM (%)) was 50.4%. For the same molecule, the inhibition at 10 µM (CDK13/Cyclin K; average of experiments) was 4.6%, the inhibition at 10 µM (CDK13/Cyclin K; independent experiment 1) was 9.6% and the inhibition at 10 µM (CDK13/Cyclin K; independent experiment 2) was -0.3%. For the same molecule, the inhibition at 10 µM (CDK10/Cyclin L2; average of experiments) was 9.7%, the inhibition at 10 µM (CDK10/Cyclin L2; independent experiment 1) was 10.4% and the inhibition at 10 µM (CDK10/Cyclin L2; independent experiment 2) was 9%. It also gave an inhibition at 10 µM (CDK8/Cyclin C; average of experiments) of 2.5%, an inhibition at 10 µM (CDK8/Cyclin C; independent experiment 1) of 1.7% and an inhibition at 10 µM (CDK8/Cyclin C; independent experiment 2) of 3.4%. For the same molecule, the inhibition at 10 µM (CDK19/Cyclin C; average of experiments) was 17%, the inhibition at 10 µM (CDK19/Cyclin C; independent experiment 1) was 23.5% and the inhibition at 10 µM (CDK19/Cyclin C; independent experiment 2) was 10.4%. For the same molecule, the inhibition at 10 µM (CDK11B/Cyclin L2; average of experiments) was 7.8%, the inhibition at 10 µM (CDK11B/Cyclin L2; independent experiment 1) was 11.9% and the inhibition at 10 µM (CDK11B/Cyclin L2; independent experiment 2) was 3.7%. For the same molecule, the inhibition at 10 µM (CDK4/Cyclin D1; average of experiments) was -3.2%, the inhibition at 10 µM (CDK4/Cyclin D1; independent experiment 1) was 29.6% and the inhibition at 10 µM (CDK4/Cyclin D1; independent experiment 2) was -35.9%. It also gave an inhibition at 10 µM (CDK12/Cyclin K; independent experiment 1) of 7.1%, an inhibition at 10 µM (CDK12/Cyclin K; independent experiment 2) of 15.8% and an inhibition at 10 µM (CDK6/Cyclin D1; independent experiment 1) of 19.8%. The inhibition at 10 µM (CDK6/Cyclin D1; independent experiment 2) was 12.4%, the inhibition at 10 µM (CDK20/Cyclin H; independent experiment 1) was 8.8% and the inhibition at 10 µM (CDK20/Cyclin H; independent experiment 2) was 17.9%.
